# Source: PubChem BioAssay AID330 (DTP/NCI, 2004)
# Several values for one entry are separate records, joined by “and”; a condition that tells them apart may be missing. Equal values may be shown once. Toxic doses and inconclusive results are not listed. Square brackets hold non-standard residues; d marks the D form. Peptide text beside a SMILES is read from it. * marks the point of attachment. ξ: configuration not given here. ξF = NC(Cc1ccccc1)C(=O)O; Bz = O=C(c1ccccc1)*
# System: P388 leukemia ip, CD2F1 mice, survival T/C
# Assay: NCI In Vivo Anticancer Drug Screen. Data for tumor model P388 Leukemia (intraperitoneal) in CD2F1 (CDF1) mice
# Details: endpoint: median survival time, higher = longer survival
# Summary of the method: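 Mice carrying the transplanted tumor received test compound or vehicle. Survival was recorded in each group, and the value is the treated-group measurement divided by that of the vehicle-treated control group.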
# [1] = dose: 50.0 mg/kg/injection, schedule: Q01DX005 (ip), vehicle: saline with Tween-80
# [2] = dose: 100.0 mg/kg/injection, schedule: Q01DX005 (ip), vehicle: saline with Tween-80
# [3] = dose: 200.0 mg/kg/injection, schedule: Q01DX005 (ip), vehicle: saline with Tween-80
smiles,measurement,setting,value
Cc1ccccc1NP1(=O)OCCCN1Cc1ccccc1Cl (stereo unspecified),T/C,[1],99 % of control
same,T/C,[2],93 % of control
same,T/C,[3],93 % of control
O=S1(=O)C=C(c2ccccc2)C(c2ccccc2)=C1,T/C,"dose: 12.5 mg/kg/injection, schedule: Q04DX003 (ip), vehicle: saline with Tween-80",100 % of control
same,T/C,"dose: 25.0 mg/kg/injection, schedule: Q04DX003 (ip), vehicle: saline with Tween-80",100 % of control
same,T/C,"dose: 50.0 mg/kg/injection, schedule: Q04DX003 (ip), vehicle: saline with Tween-80",109 % of control
O=C(CNC(=O)c1ccccc1)NCC(=O)NC(Cc1ccccc1)C(=O)O (stereo not drawn) (Bz-Gly-Gly-[ξF]-OH),T/C,[1],96 % of control
same,T/C,[2],100 % of control
O=C1CC2(CCCC2)C(=O)N1c1ccc(N2C(=O)CC3(CCCC3)C2=O)cc1,T/C,"dose: 50.0 mg/kg/injection, schedule: Q01DX009 (ip), vehicle: Klucel (hydroxypropylcellulose) (HPC)",96 % of control
same,T/C,"dose: 100.0 mg/kg/injection, schedule: Q01DX009 (ip), vehicle: Klucel (hydroxypropylcellulose) (HPC)",99 % of control
same,T/C,"dose: 200.0 mg/kg/injection, schedule: Q01DX009 (ip), vehicle: Klucel (hydroxypropylcellulose) (HPC)",96 % of control
Cn1ccc2c3c4ccccc4ccc3c3c(ccn3C)c21,T/C,"dose: 50.0 mg/kg/injection, schedule: Q01DX005 (ip), vehicle: Klucel (hydroxypropylcellulose) (HPC)",197 % of control
same,T/C,"dose: 100.0 mg/kg/injection, schedule: Q01DX005 (ip), vehicle: Klucel (hydroxypropylcellulose) (HPC)",177 % of control
same,T/C,"dose: 200.0 mg/kg/injection, schedule: Q01DX005 (ip), vehicle: Klucel (hydroxypropylcellulose) (HPC)",239 % of control
O=[N+]([O-])c1ccc(N2CCN(Cc3ccccc3)CC2)c2c1no[n+]2[O-],T/C,"dose: 37.5 mg/kg/injection, schedule: Q04DX003 (ip), vehicle: saline",100 % of control
same,T/C,"dose: 37.5 mg/kg/injection, schedule: Q04DX003 (ip), vehicle: suspension in saline",104 % of control
same,T/C,"dose: 75.0 mg/kg/injection, schedule: Q04DX003 (ip), vehicle: saline",97 % of control
same,T/C,"dose: 75.0 mg/kg/injection, schedule: Q04DX003 (ip), vehicle: suspension in saline",120 % of control
same,T/C,"dose: 150.0 mg/kg/injection, schedule: Q04DX003 (ip), vehicle: saline",100 % of control
same,T/C,"dose: 150.0 mg/kg/injection, schedule: Q04DX003 (ip), vehicle: suspension in saline",109 % of control
same,T/C,"dose: 300.0 mg/kg/injection, schedule: Q04DX003 (ip), vehicle: saline",100 % of control
same,T/C,"dose: 300.0 mg/kg/injection, schedule: Q04DX003 (ip), vehicle: suspension in saline",104 % of control
CSC(=S)n1nc(-c2ccccc2)c(N=Nc2ccc(Br)cc2)c1C,T/C,"dose: 100.0 mg/kg/injection, schedule: Q04DX002 (ip), vehicle: Klucel (hydroxypropylcellulose) (HPC)",98 % of control
same,T/C,"dose: 200.0 mg/kg/injection, schedule: Q04DX002 (ip), vehicle: Klucel (hydroxypropylcellulose) (HPC)",100 % of control
same,T/C,"dose: 400.0 mg/kg/injection, schedule: Q04DX002 (ip), vehicle: Klucel (hydroxypropylcellulose) (HPC)",94 % of control
CCCCN=NNCCCC,T/C,"dose: 12.5 mg/kg/injection, schedule: Q01DX005 (ip), vehicle: saline with Tween-80",110 % of control
same,T/C,[1],151 % of control
O=C1c2ccccc2C(=O)c2c(O)c(NCCCN(CCO)CCO)cc(O)c21,T/C,[1],101 % of control
same,T/C,[2],109 % of control
same,T/C,[3],113 % of control
CN1C=NNC(=O)c2ccccc21,T/C,"dose: 50.0 mg/kg/injection, schedule: Q01DX009 (ip), vehicle: saline with Tween-80",86 % of control
same,T/C,"dose: 100.0 mg/kg/injection, schedule: Q01DX009 (ip), vehicle: saline with Tween-80",87 % of control
same,T/C,"dose: 200.0 mg/kg/injection, schedule: Q01DX009 (ip), vehicle: saline with Tween-80",102 % of control
C1CCN2COCC2C1 (stereo unspecified),T/C,"dose: 12.5 mg/kg/injection, schedule: Q01DX005 (ip), vehicle: saline",108 % of control
same,T/C,"dose: 25.0 mg/kg/injection, schedule: Q01DX005 (ip), vehicle: saline",117 % of control
same,T/C,"dose: 100.0 mg/kg/injection, schedule: Q01DX005 (ip), vehicle: saline",120 % of control and 122 % of control
